System: COVID-19 Delta virus-infected mice
Test: IL-1β and MCP-1 expression (RT-qPCR) in lung homogenates of COVID-19 Delta virus-infected mice
Type: in vivo, hACE2 transgenic C57BL/6 mice
Conditions: 20 mg/kg administration group

CC(C)=CCC[C@](C)(O[C@@H]1O[C@H](CO)[C@@H](O)[C@H](O)[C@H]1O)[C@H]1CC[C@]2(C)[C@@H]1[C@H](O)C[C@@H]1[C@@]3(C)CC[C@H](O[C@@H]4O[C@H](CO)[C@@H](O)[C@H](O)[C@H]4O[C@@H]4O[C@H](CO)[C@@H](O)[C@H](O)[C@H]4O)C(C)(C)[C@@H]3CC[C@]12C [Ginsenoside Rd, ginsenoside Rd]
ability to inhibit the overexpression of inflammatory mediators compared with Dexamethasone: considerable to that of Dexamethasone
